{
  "source": "the supplement of paper PMC10307832",
  "key": {"[1]": {"compound": "Cc1ccccc1C(C(=O)NC1CCCCC1)N(C(=O)Cn1ccnc1C)c1cccc(F)c1 [IDH-C35] + Cc1nc(Nc2ncc(C(=O)Nc3c(C)cccc3Cl)s2)cc(N2CCN(CCO)CC2)n1 [Dasatinib] (partner 0.075 µM)", "experiment": "relative viability (nuclei count vs DMSO), 5 days (fraction); higher = more cells survive", "in_short": "(§1)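 Medians of duplicate plates are given as relative viability. That measure is the nuclei count in treated wells divided by the count in vehicle wells. Counts were taken on 4× images of lung cancer cell lines in 1536-well plates, 5 days after pin-tool dosing the day after seeding with one drug alone or a fixed anchor-drug dose plus five library-drug doses (not always all listed) in √10 steps.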"}, "[2]": {"compound": "CC1=C(C(=NN1)C)CC2=C(C3=C(S2)N(C(=O)N(C3=O)C)CC(C)C)C(=O)N4C[C@@H](CO4)O + CC(=O)Nc1cccc(-n2c(=O)n(C3CC3)c(=O)c3c(Nc4ccc(I)cc4F)n(C)c(=O)c(C)c32)c1 [Trametinib] (partner 0.02 µM)", "experiment": "relative viability (nuclei count vs DMSO), 5 days (fraction); higher = more cells survive", "in_short": "as §1"}},
  "data": [
    {"cell line": "HOP-62", "values": [
      {"measurement": "relative viability", "setting": "[1]; first compound 0.08 µM", "result": 0.712},
      {"measurement": "relative viability", "setting": "[1]; first compound 0.253 µM", "result": 0.624},
      {"measurement": "relative viability", "setting": "[1]; first compound 0.8 µM", "result": 0.6},
      {"measurement": "relative viability", "setting": "[1]; first compound 2.53 µM", "result": 0.638},
      {"measurement": "relative viability", "setting": "[1]; first compound 8 µM", "result": 0.622},
      {"measurement": "relative viability", "setting": "[2]; first compound 0.0025 µM", "result": 0.365},
      {"measurement": "relative viability", "setting": "[2]; first compound 0.007906 µM", "result": 0.402},
      {"measurement": "relative viability", "setting": "[2]; first compound 0.025 µM", "result": 0.408},
      {"measurement": "relative viability", "setting": "[2]; first compound 0.07906 µM", "result": 0.435},
      {"measurement": "relative viability", "setting": "[2]; first compound 0.25 µM", "result": 0.4}
    ]},
    {"cell line": "CAL-12T", "values": [
      {"measurement": "relative viability", "setting": "[1]; first compound 0.08 µM", "result": 0.39},
      {"measurement": "relative viability", "setting": "[1]; first compound 0.253 µM", "result": 0.613},
      {"measurement": "relative viability", "setting": "[1]; first compound 0.8 µM", "result": 0.411},
      {"measurement": "relative viability", "setting": "[1]; first compound 2.53 µM", "result": 0.496},
      {"measurement": "relative viability", "setting": "[1]; first compound 8 µM", "result": 0.396},
      {"measurement": "relative viability", "setting": "[2]; first compound 0.0025 µM", "result": 0.402},
      {"measurement": "relative viability", "setting": "[2]; first compound 0.007906 µM", "result": 0.464},
      {"measurement": "relative viability", "setting": "[2]; first compound 0.025 µM", "result": 0.372},
      {"measurement": "relative viability", "setting": "[2]; first compound 0.07906 µM", "result": 0.379},
      {"measurement": "relative viability", "setting": "[2]; first compound 0.25 µM", "result": 0.405}
    ]},
    {"cell line": "NCI-H520", "values": [
      {"measurement": "relative viability", "setting": "[1]; first compound 0.08 µM", "result": 0.191},
      {"measurement": "relative viability", "setting": "[1]; first compound 0.253 µM", "result": 0.159},
      {"measurement": "relative viability", "setting": "[1]; first compound 0.8 µM", "result": 0.202},
      {"measurement": "relative viability", "setting": "[1]; first compound 2.53 µM", "result": 0.181},
      {"measurement": "relative viability", "setting": "[1]; first compound 8 µM", "result": 0.217},
      {"measurement": "relative viability", "setting": "[2]; first compound 0.0025 µM", "result": 0.671},
      {"measurement": "relative viability", "setting": "[2]; first compound 0.007906 µM", "result": 0.824},
      {"measurement": "relative viability", "setting": "[2]; first compound 0.025 µM", "result": 0.455},
      {"measurement": "relative viability", "setting": "[2]; first compound 0.07906 µM", "result": 0.457},
      {"measurement": "relative viability", "setting": "[2]; first compound 0.25 µM", "result": 0.463}
    ]},
    {"cell line": "NCI-H1755", "values": [
      {"measurement": "relative viability", "setting": "[1]; first compound 0.08 µM", "result": 0.374},
      {"measurement": "relative viability", "setting": "[1]; first compound 0.253 µM", "result": 0.409},
      {"measurement": "relative viability", "setting": "[1]; first compound 0.8 µM", "result": 0.433},
      {"measurement": "relative viability", "setting": "[1]; first compound 2.53 µM", "result": 0.409},
      {"measurement": "relative viability", "setting": "[1]; first compound 8 µM", "result": 0.465},
      {"measurement": "relative viability", "setting": "[2]; first compound 0.0025 µM", "result": 0.829},
      {"measurement": "relative viability", "setting": "[2]; first compound 0.007906 µM", "result": 0.818},
      {"measurement": "relative viability", "setting": "[2]; first compound 0.025 µM", "result": 0.745},
      {"measurement": "relative viability", "setting": "[2]; first compound 0.07906 µM", "result": 0.73},
      {"measurement": "relative viability", "setting": "[2]; first compound 0.25 µM", "result": 0.761}
    ]},
    {"cell line": "NCI-H2023", "values": [
      {"measurement": "relative viability", "setting": "[1]; first compound 0.08 µM", "result": 0.59},
      {"measurement": "relative viability", "setting": "[1]; first compound 0.253 µM", "result": 0.549},
      {"measurement": "relative viability", "setting": "[1]; first compound 0.8 µM", "result": 0.673},
      {"measurement": "relative viability", "setting": "[1]; first compound 2.53 µM", "result": 0.517},
      {"measurement": "relative viability", "setting": "[1]; first compound 8 µM", "result": 0.559},
      {"measurement": "relative viability", "setting": "[2]; first compound 0.0025 µM", "result": 0.667},
      {"measurement": "relative viability", "setting": "[2]; first compound 0.007906 µM", "result": 0.613},
      {"measurement": "relative viability", "setting": "[2]; first compound 0.025 µM", "result": 0.562},
      {"measurement": "relative viability", "setting": "[2]; first compound 0.07906 µM", "result": 0.599},
      {"measurement": "relative viability", "setting": "[2]; first compound 0.25 µM", "result": 0.575}
    ]},
    {"cell line": "NCI-H2009", "values": [
      {"measurement": "relative viability", "setting": "[1]; first compound 0.08 µM", "result": 0.309},
      {"measurement": "relative viability", "setting": "[1]; first compound 0.253 µM", "result": 0.33},
      {"measurement": "relative viability", "setting": "[1]; first compound 0.8 µM", "result": 0.341},
      {"measurement": "relative viability", "setting": "[1]; first compound 2.53 µM", "result": 0.311},
      {"measurement": "relative viability", "setting": "[1]; first compound 8 µM", "result": 0.303},
      {"measurement": "relative viability", "setting": "[2]; first compound 0.0025 µM", "result": 0.318},
      {"measurement": "relative viability", "setting": "[2]; first compound 0.007906 µM", "result": 0.286},
      {"measurement": "relative viability", "setting": "[2]; first compound 0.025 µM", "result": 0.289},
      {"measurement": "relative viability", "setting": "[2]; first compound 0.07906 µM", "result": 0.287},
      {"measurement": "relative viability", "setting": "[2]; first compound 0.25 µM", "result": 0.237}
    ]}
  ]
}
